We go through 22 molecules from the supplement of paper PMC5412046.

The viability is a read-out of living cells in per cent, often relative to untreated cells.

The test system of test [1] is SB.mhdgc-1. Put plainly: viability at highest tested concentration (MAXR) relative to DMSO; higher = less cytotoxic. The conditions noted are these: SB.mhdgc-1 (hereditary c.1380delA CDH1 gastric cancer). Summed up:
(§1)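 Reported here is DMSO-normalised viability, either at the highest concentration or as a trapezoidal area under the curve. Hereditary or sporadic patient-derived gastric cancer cells received compound by pintool at 11 threefold-diluted concentrations and were read with CellTiter-Glo after 48 h.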

In test [2] the test system is SB.msgc-1. The test is described as above. The conditions noted are these: SB.msgc-1 (sporadic gastric cancer). Summed up: as §1
The subject of test [3] is SB.mhdgc-1. Nature of the test: area under the dose-response curve of % viability (trapezoidal, 11 doses) (% viability x log10 concentration); higher = less cytotoxic. The conditions noted are these: SB.mhdgc-1 (hereditary c.1380delA CDH1 gastric cancer). The procedure, abridged:
as §1

In test [4] the test system is SB.msgc-1. The description is as above. The settings on record: SB.msgc-1 (sporadic gastric cancer). The procedure, abridged: as §1

In the case of `CCN1CCN(Cc2ccc(-c3cc4c(N[C@H](C)c5ccccc5)ncnc4[nH]3)cc2)CC1` [AEE-788] (top concentration 46.0829 µM), the viability was found to be 6.64% in test [1] and 24.6% in test [2]. In addition, the “area under the dose-response curve” value in test [3] came to 214; in test [4], 189.
As to `Cc1cc(-c2ccc(CC(=O)Nc3ccc(-c4cccnc4)cc3)cc2)ccn1` [Wnt-C59] (top concentration 46.0829 µM), the viability in test [1] worked out at 49.6%; in test [2], 49%. Moreover, the “area under the dose-response curve” value was found to be 497 in test [3] and 501 in test [4].
For `Cc1c(C(=O)Nc2ccc(N3C[C@@H](C)O[C@@H](C)C3)nc2)cccc1-c1ccc(OC(F)(F)F)cc1` [NVP-LDE-225] (top concentration 46.0829 µM), in that order: 43.9%, 40.3%, 479 and 488.
As to `C[C@]12CC[C@@H]3c4ccc(O)cc4CC[C@H]3[C@@H]1CC[C@@H]2O` [Estradiol] (top concentration 46.0829 µM), the viability in test [1] came out at 74.8%; in test [2], 20.5%. Also, the “area under the dose-response curve” value turned out to be 565 in test [3] and 462 in test [4].
For `O=C(Nc1ccccc1-c1cn2c(CN3CCNCC3)csc2n1)c1cnc2ccccc2n1` [SRT1720] (top concentration 46.0829 µM), the viability in test [1] amounted to 0.447%; in test [2], 7.57%. Further, the “area under the dose-response curve” value in test [3] was 476; in test [4], 456.
For the molecule `O=c1cc(-c2ccc(O)c(O)c2)oc2cc(O)cc(O)c12` [Luteolin] (top concentration 46.0829 µM), the viability in test [1] was determined as 42.6%; in test [2] it was 86.9%. Moreover, the “area under the dose-response curve” value was 442 in test [3] and 572 in test [4].
As for `Cc1cnc(Nc2cccc(CN3CCOCC3)c2)nc1Nc1cccc([S+](=O)([O-])NC(C)(C)C)c1` [TG-89] (top concentration 46.0829 µM), the values for the viability in test [1] and in test [2] were 6.02% and 14.5%, respectively. The “area under the dose-response curve” value was determined as 434 in test [3] and 439 in test [4].
As to `Cc1ccc([S+](=O)([O-])Nc2cc(Cl)ccc2C(=O)Nc2nc(-c3ccccc3)cs2)cc1` (top concentration 46.0829 µM), the viability in test [1] was 22.9%; in test [2], 28.1%. Also, the “area under the dose-response curve” value in test [3] worked out at 519; in test [4] it was 468.
Consider `COc1cc2ncnc(Nc3cccc(Cl)c3)c2cc1OC` [AG-1478] (top concentration 46.0829 µM), for which the viability was 19.2% in test [1] and 35.8% in test [2]. For the same molecule, the “area under the dose-response curve” value stood at 308 in test [3] and 372 in test [4].
With `CNC(=O)c1cccc(-c2ccc3c(N4CCOC[C@@H]4C)nc(N4CCOC[C@@H]4C)nc3n2)c1` [AZD-2014] (top concentration 46.0829 µM), the viability in test [1] was 49.5%; in test [2] it was 59.6%. Also, the “area under the dose-response curve” value is 317 in test [3] and 425 in test [4].
Turning to `COc1cc(/C=C/C(=O)O)ccc1O` [Fumalic acid] (top concentration 46.0829 µM), the viability in test [1] was found to be 112%; in test [2], 80.7%. Moreover, the “area under the dose-response curve” value in test [3] was determined as 583; in test [4] it was 427.
Take `O=C(CCc1ccc(O)cc1)c1c(O)cc(O)cc1O` [Phloretin] (top concentration 46.0829 µM): the viability in test [1] was 55.6%; in test [2], 55.4%. In addition, the “area under the dose-response curve” value was 415 in test [3] and 380 in test [4].
As to `Nc1nc(F)nc2c1ncn2[C@@H]1O[C@H](CO)[C@@H](O)[C@H]1O` [2-Fluoroadenosine] (top concentration 46.0829 µM), the viability in test [1] amounted to 44.5%; in test [2] it was 27.3%. In addition, the “area under the dose-response curve” value in test [3] was determined as 416; in test [4], 394.
`OC1=C(Cl)C=C(N\C2=C(\C(=O)NC2=O)C3=C(C=CC=C3)[N+]([O-])=O)C=C1` (top concentration 46.0829 µM): the figures for the viability in test [1] and in test [2] were 76.5% and 53.3%, respectively. Also, the “area under the dose-response curve” value in test [3] turned out to be 415; in test [4] it was 490.
Regarding `CC(=O)OCC(=O)[C@@]12OC(C)(C)O[C@@H]1C[C@H]3[C@@H]4C[C@H](F)C/5=C/C(=O)/C=C\[C@]5(C)[C@@]4(F)[C@@H](O)C[C@]23C` [Fluocinonide] (top concentration 46.0829 µM), the viability in test [1] was 120%; in test [2], 131%. Further, the figures for the “area under the dose-response curve” value in test [3] and in test [4] were 583 and 549, respectively.
The like results for `O=C1NC(=O)[C@@H](c2cn3c4c(cccc24)CCC3)[C@@H]1c1c[nH]c2ccccc12` [Tivantinib] (top concentration 46.0829 µM) were, in that order, 39.4%, 36.2%, 369 and 392.
In the case of `NC(=O)c1ccc(-c2nc(-c3ccc4c(c3)OCO4)c(-c3ccccn3)[nH]2)cc1` (top concentration 46.0829 µM), the viability came out at 111% in test [1] and 83.7% in test [2]. Further, the “area under the dose-response curve” value in test [3] stood at 585; in test [4], 496.
For `CCOc1cc2ncc(C#N)c(Nc3ccc(OCc4ccccn4)c(Cl)c3)c2cc1NC(=O)/C=C/CN(C)C` [Neratinib] (top concentration 46.0829 µM), the viability is 33.2% in test [1] and 48.2% in test [2]. Besides, the figures for the “area under the dose-response curve” value in test [3] and in test [4] were 393 and 208, respectively.
On to `CCOC(=O)c1c(/C(C#N)=C\N)c2ccc(Cl)c(Cl)c2n1C` [KH-CB19] (top concentration 46.0829 µM), for which the viability is 52.1% in test [1] and 96% in test [2]. The “area under the dose-response curve” value in test [3] is 416; in test [4], 531.
On to `COc1cc(N2CCC(N3CCN(C)CC3)CC2)ccc1Nc1ncc(Cl)c(Nc2ccccc2[S+](=O)([O-])C(C)C)n1` [TAE-684] (top concentration 46.0829 µM), for which the results for the viability in test [1] and in test [2] were 2.06% and 28.8%, respectively. Besides, the results for the “area under the dose-response curve” value in test [3] and in test [4] were 221 and 343, respectively.
Take `Cl.O[C@@H](CNC[C@H](O)[C@H]1CCc2cc(F)ccc2O1)[C@@H]1CCc2cc(F)ccc2O1` [Nebivolol] (top concentration 46.0829 µM): the figures for the viability in test [1] and in test [2] were 10.2% and 79%, respectively. Moreover, the “area under the dose-response curve” value in test [3] is 511; in test [4], 524.
For `CCOC(=O)N1c2ccc(C(F)(F)F)cc2[C@@H](N(Cc2cc(C(F)(F)F)cc(C(F)(F)F)c2)C(=O)OC)C[C@H]1CC` [Torcetrapib] (top concentration 46.0829 µM), in that order: 57.1%, 60.6%, 538 and 503.
